US20240042050A1, “ANTI-HER2 IMMUNOCONJUGATES, AND USES THEREOF” (BOLT BIOTHERAPEUTICS, INC., priority 2020, published 2024)

Assays:
human TLR8 = target: T1, human TLR8 (Homo sapiens, UniProt Q9NR97); assay: HEK Reporter Assay, HEK293 reporter cells expressing human TLR8; format: cell-based; conditions: HEK293 NFKB reporter cells expressing human TLR8; read-out: HEK293 hTLR8 EC50
T1 construct: host or cells: HEK293 NF-kB reporter cells
T1 sequence (Q9NR97 27-1041): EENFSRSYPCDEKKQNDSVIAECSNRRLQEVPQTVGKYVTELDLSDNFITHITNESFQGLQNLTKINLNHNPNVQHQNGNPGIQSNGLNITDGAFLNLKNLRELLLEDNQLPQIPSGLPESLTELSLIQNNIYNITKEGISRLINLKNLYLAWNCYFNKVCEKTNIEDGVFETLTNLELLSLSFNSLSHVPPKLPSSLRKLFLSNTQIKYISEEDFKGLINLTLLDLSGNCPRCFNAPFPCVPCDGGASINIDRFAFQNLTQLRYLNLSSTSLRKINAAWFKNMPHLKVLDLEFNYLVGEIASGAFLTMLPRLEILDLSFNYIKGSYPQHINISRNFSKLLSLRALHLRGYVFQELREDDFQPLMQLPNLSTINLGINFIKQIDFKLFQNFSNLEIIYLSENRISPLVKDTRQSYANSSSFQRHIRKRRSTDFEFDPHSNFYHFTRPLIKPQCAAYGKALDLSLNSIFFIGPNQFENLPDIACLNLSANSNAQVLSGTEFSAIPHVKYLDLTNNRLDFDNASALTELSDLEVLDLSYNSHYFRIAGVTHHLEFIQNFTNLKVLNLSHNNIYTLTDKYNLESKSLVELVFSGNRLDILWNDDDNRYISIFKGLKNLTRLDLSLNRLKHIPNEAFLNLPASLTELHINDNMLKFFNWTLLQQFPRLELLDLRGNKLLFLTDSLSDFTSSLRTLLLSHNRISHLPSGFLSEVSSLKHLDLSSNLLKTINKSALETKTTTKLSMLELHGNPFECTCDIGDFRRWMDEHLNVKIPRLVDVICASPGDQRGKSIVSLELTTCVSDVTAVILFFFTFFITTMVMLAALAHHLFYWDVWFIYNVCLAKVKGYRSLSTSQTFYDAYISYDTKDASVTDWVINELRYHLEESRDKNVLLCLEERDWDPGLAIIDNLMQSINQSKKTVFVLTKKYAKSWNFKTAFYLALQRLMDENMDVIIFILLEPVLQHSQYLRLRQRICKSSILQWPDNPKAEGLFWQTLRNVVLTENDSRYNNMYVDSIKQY
Experimental: (§1) Each compound was synthesized, purified, and characterized by mass spectrometry and shown to have the mass indicated. Additional experimental procedures are found in the Examples. Activity against HEK293 NFKB reporter cells expressing human TLR7 or human TLR8 was measured according to Example 202.
(§2) Example 202 HEK Reporter Assay
(§3) HEK293 reporter cells expressing human TLR7 or human TLR8 were purchased from Invivogen and vendor protocols were followed for cellular propagation and experimentation. Briefly, cells were grown to 80-85% confluence at 5% CO2 in DMEM supplemented with 10% FBS, Zeocin, and Blasticidin. Cells were then seeded in 96-well flat plates at 4×10^4 cells/well with substrate containing HEK detection medium and immunostimulatory molecules.

human TLR7 = target: T2, human TLR7 (Homo sapiens, UniProt Q9NYK1); assay: HEK Reporter Assay, HEK293 reporter cells expressing human TLR7; format: cell-based; conditions: HEK293 NFKB reporter cells expressing human TLR7; read-out: HEK293 hTLR7 EC50
T2 construct: host or cells: HEK293 NF-kB reporter cells
T2 sequence (Q9NYK1 27-1049): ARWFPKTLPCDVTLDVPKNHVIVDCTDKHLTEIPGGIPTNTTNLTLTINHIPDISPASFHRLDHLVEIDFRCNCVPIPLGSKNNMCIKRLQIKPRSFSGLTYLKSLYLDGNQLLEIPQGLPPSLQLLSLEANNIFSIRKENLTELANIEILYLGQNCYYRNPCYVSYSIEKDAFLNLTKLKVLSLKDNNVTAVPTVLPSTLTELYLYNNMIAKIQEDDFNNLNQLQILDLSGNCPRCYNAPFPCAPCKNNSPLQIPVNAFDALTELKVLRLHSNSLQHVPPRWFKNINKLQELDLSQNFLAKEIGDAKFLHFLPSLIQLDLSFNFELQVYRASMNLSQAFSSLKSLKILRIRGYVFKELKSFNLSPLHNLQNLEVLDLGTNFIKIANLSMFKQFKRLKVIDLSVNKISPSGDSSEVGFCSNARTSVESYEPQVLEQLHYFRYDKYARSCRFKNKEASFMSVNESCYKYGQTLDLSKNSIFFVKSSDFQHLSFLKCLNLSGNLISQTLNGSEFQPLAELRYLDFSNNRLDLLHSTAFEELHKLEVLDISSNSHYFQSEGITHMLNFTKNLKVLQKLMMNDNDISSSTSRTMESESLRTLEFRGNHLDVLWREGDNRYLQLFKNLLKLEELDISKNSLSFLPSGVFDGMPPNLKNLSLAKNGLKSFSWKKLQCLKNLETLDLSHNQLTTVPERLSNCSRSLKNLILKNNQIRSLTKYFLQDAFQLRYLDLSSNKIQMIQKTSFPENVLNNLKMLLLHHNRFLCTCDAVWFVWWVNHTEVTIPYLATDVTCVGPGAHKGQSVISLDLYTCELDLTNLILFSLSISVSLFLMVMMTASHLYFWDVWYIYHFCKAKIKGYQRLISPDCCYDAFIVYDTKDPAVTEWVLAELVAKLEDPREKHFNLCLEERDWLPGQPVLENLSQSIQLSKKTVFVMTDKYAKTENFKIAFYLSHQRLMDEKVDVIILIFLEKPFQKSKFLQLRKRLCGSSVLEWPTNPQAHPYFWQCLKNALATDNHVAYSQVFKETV
Experimental: as §1, §2, §3

Structure (SMILES): CCCN(CCCCO)C(=O)C1=Cc2ccc(-c3cccc(S(=O)(=O)N4CC(CNC(=O)OC(C)(C)C)C4)c3)cc2N=C(N)C1 [PhBz-9]
- EC50 (human TLR8): 1.08 µM
- EC50 (human TLR7): 5.14 µM

Structure (SMILES): CCCN(CCO)C(=O)C1=Cc2ccc(-c3cccc(S(=O)(=O)N4CC(CNC(=O)OC(C)(C)C)C4)c3)cc2N=C(N)C1 [PhBz-21]
- EC50 (human TLR8): 0.423 µM
- EC50 (human TLR7): 3.52 µM

Structure (SMILES): CCCN(OCCO)C(=O)C1=Cc2ccc(-c3cccc(S(=O)(=O)N4CC(CN)C4)c3)cc2N=C(N)C1 [PhBz-25]
- EC50 (human TLR8): 0.822 µM
